# In US20210260145A1, “PHARMACEUTICAL COMPOSITION FOR ALLEVIATING EYE FATIGUE, CONTAINING, AS ACTIVE INGREDIENTS, LUTEOLIN-7-O-DIGLUCURONIDE AND APIGENIN-7-O-DIGLUCURONIDE ISOLATED FROM PERILLA FRUTESCENS (L.) BRITTON VAR. ACUTA (THUNB.) KUDO LEAF EXTRACT” (JEONNAM BIOINDUSTRY FOUNDATION, priority 2018, published 2021):
# Test system: Ciliary muscle cells (rCSMCs) isolated from rat's eyes
# Assay: cGMP content in rat ciliary muscle cells, isolated compounds (ELISA)
# Type: cell-based
# Conditions: compounds 0.01, 0.05, 0.1, 1 μg/mL, 15 minutes
# Method: Ciliary muscle cells ([…]) isolated from rat's eyes were dispensed into 6 wells at 5×10^5 cells/well and stabilized for one day. After stabilization, 3-isobuytyl-1-methylxanthine (1 mM) was pre-treated for 10 minutes, and then luteolin-7-O-diglucuronide and apigenin-7-O-diglucuronide compounds isolated from the Perilla frutescens (L.) Britton var. acuta (Thunb.) Kudo leaf extract were reacted for 15 minutes at concentrations of 0.01, 0.05, 0.1, and 1 μg/mL. The cGMP contents of these compounds were measured using an ELISA kit.
row,Compound,cGMP content
1,luteolin-7-O-diglucuronide,increasing the cGMP content
2,O=C(O)[C@H]1O[C@@H](O[C@H]2[C@H](Oc3cc(O)c4c(=O)cc(-c5ccc(O)cc5)oc4c3)O[C@H](C(=O)O)[C@@H](O)[C@@H]2O)[C@H](O)[C@@H](O)[C@@H]1O [apigenin-7-O-diglucuronide],increasing the cGMP content
